Measured values taken from patent US11447480B2, “Compound exhibiting enteropeptidase inhibitory activity” (LG CHEM, LTD., priority 2018, dated 2022).

Target: Recombinant Human Enteropeptidase (Homo sapiens (Human), UniProt P98073)
Experiment: Enteropeptidase Inhibition Assay
Format: biochemical
Conditions: substrate Acetyl-Asp-Asp-Asp-Asp-Lys-AFC 30 μM, 30° C., 1 hour; Ki calculated from IC50 using Cheng-Prusoff equation
Description: Enteropeptidase Inhibition Assay
The inhibitory activity of the enteropeptidase inhibitor synthesized using the purified Recombinant Human Enteropeptidase and the substrate Acetyl-Asp-Asp-Asp-Asp-Lys-AFC (BioVision) was measured. 7.2 ng/mL of Enteropeptidase diluted with a buffer (20 mM Tris, 50 mM NaCl, pH 7.5) in a 96 well plate (Costar), 30 μM of Acetyl-Asp-Asp-Asp-Asp-Lys-AFC, several concentrations of Enteropeptidase inhibitors (1% DMSO concentration) were dispensed such that a final volume was 100 μL, and then the enzyme reaction was carried out at 30° C. for 1 hour. At this time, 1% DMSO, a substrate and Enteropeptidase instead of the compound were dispensed onto positive control wells, and 1% DMSO and a substrate were dispensed onto negative control wells. The enzyme reaction was […] using an excitation wavelength of 380 nm and an emission wavelength of 500 nm in a fluorescence spectrometer, and then the rate of increase in fluorescence (milli-units per min) between 20 and 60 minutes was measured.
The fluorescence measurement values reduced by the inhibitor diluted at each concentration were converted into relative values % of the positive control group (100% reactivity) and the negative control group (0% reactivity), and used to calculate IC50 values. IC50 is the concentration of the inhibitor that inhibits the enzyme activity by 50%, and was calculated using PRISM (GraphPad). Ki values were calculated from the IC50 values using Cheng-Prusoff equation.

Chain of Recombinant Human Enteropeptidase (P98073 whole entry): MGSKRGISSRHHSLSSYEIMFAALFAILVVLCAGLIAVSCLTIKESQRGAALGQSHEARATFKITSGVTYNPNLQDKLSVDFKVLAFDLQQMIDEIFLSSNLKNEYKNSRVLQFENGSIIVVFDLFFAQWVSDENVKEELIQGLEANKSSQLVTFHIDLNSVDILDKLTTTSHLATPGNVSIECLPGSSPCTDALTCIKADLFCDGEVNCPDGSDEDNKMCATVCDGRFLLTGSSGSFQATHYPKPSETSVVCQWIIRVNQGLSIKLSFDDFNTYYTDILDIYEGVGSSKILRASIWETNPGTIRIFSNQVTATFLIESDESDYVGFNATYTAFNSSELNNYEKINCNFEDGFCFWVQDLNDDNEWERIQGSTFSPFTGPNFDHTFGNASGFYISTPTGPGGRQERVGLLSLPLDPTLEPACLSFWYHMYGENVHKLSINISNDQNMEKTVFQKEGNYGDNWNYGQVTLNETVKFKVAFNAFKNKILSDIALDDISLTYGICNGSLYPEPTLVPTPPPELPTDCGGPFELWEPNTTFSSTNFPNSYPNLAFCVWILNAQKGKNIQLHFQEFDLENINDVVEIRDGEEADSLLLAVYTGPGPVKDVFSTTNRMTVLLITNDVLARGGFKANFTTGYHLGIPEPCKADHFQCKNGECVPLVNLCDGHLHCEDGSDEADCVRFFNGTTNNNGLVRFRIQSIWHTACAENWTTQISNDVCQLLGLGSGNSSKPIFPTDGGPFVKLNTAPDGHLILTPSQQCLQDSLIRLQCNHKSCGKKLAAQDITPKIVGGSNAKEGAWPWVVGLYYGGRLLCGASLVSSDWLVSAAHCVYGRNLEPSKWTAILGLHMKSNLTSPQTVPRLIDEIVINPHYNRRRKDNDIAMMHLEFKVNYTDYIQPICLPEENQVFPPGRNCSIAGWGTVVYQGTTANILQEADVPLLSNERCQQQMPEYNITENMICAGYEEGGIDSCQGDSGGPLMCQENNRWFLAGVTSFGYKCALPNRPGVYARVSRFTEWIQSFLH

SMILES | Ki
CN(CCC(=O)O)c1nc2ccc(C(=O)Oc3ccc(C(=N)N)cc3F)cc2s1 [Example 77, 3-((6-((4-Carbamimidoyl-2-fluorophenoxy)carbonyl)benzo[d]thiazol-2-yl)(methyl) Amino)propanoic Acid] | 0.57 nM
N=C(N)c1ccc(OC(=O)c2ccc3nc(N4CCC(C(=O)Nc5ccccc5)CC4)sc3c2)cc1 [Example 80, 4-Carbamimidoylphenyl 2-(4-(phenylcarbamoyl)piperidin-1-yl)benzo[d]thiazole-6-carboxylate] | 23 nM
N=C(N)c1ccc(OC(=O)c2ccc3nc(N4CCC(NC(=O)c5ccccc5)CC4)sc3c2)c(F)c1 [Example 82, 4-Carbamimidoyl-2-fluorophenyl 2-(4-benzoamidopiperidin-1-yl)benzo[d]thiazole-6-carboxylate] | 1.9 nM
N=C(N)c1ccc(OC(=O)c2ccc3nc(N4CCC(NC(=O)c5ccccc5)CC4)sc3c2)cc1 [Example 83, 4-Carbamimidoylphenyl 2-(4-benzoamidopiperidin-1-yl)benzo[d]thiazole-6-carboxylate] | 9.7 nM
CCN(CCC(=O)OC)c1nc2ccc(C(=O)Oc3ccc(C(=N)N)cc3F)cc2s1 [Example 84, 4-Carbamimidoyl-2-fluorophenyl 2-(ethyl(3-methoxy-3-oxopropyl)amino)benzo[d]thiazole-6-carboxylate] | 2.2 nM
CCN(CCC(=O)O)c1nc2ccc(C(=O)Oc3ccc(C(=N)N)cc3F)cc2s1 [Example 85, 3-((6-((4-Carbamimidoyl-2-fluorophenoxy)carbonyl)benzo[d]thiazol-2-yl)(ethyl)amino)propanoic Acid] | 0.55 nM
CN(CC(C)(C)C(=O)O)c1nc2ccc(C(=O)Oc3ccc(C(=N)N)cc3)cc2s1 [Example 86, 3-((6-((4-Carbamimidoylphenoxy)carbonyl)benzo[d]thiazol-2-yl)(methyl)amino)-2,2-dimethylpropanoic Acid] | 10 nM
CCn1/c(=N/CC(C)(C)C(=O)OC)sc2cc(C(=O)Oc3ccc(C(=N)N)cc3F)ccc21 [Example 87, 4-Carbamimidoyl-2-fluorophenyl (Z)-3-ethyl-2-((3-methoxy-2,2-dimethyl-3-oxopropyl)imino)-2,3-dihydrobenzo[d]thiazole-6-carboxylate] | 4 nM
CCn1/c(=N/CC(C)(C)C(=O)O)sc2cc(C(=O)Oc3ccc(C(=N)N)cc3F)ccc21 [Example 88, (Z)-3-((6-((4-Carbamimidoyl-2-fluorophenoxy)carbonyl)-3-ethylbenzo[d]thiazole-2(3H)-ylidine)amino)-2,2-dimethylpropanoic Acid] | 0.16 nM
